Laboratory results: US20180194762A1 (Pharmacyclics LLC, priority 2017, published 2018)
Like-named read-outs stand apart in the source and are kept apart here.

How the values were obtained:
Type in all cases: biochemical
[1] = target: T1, Btk (Homo sapiens, UniProt Q06187); test: Btk in vitro inhibitory activity (one of Method A TR-FRET, Method B electrophoretic mobility shift, Method C radiometric filter binding)
T1 construct: purified from insect cells as a full-length construct containing a N-terminal 6X-His tag; His6 (N); made in house; host or cells: insect cells (Method C)
Method in brief: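 Three alternative formats were used. A radiometric filter-binding read used 8 nM full-length His-BTK with 0.2 mg/mL poly(Glu-Tyr) 4:1 (C); microfluidic separation of 1 μM FAM-peptide by 1 nM BTK gave IC50 from 12-point curves (B); TR-FRET at Km ATP, 0.5 nM Btk, gave Ki(app)-derived IC50 (A).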

[2] = target: T2, panel of kinases (Homo sapiens, UniProt P51813); test: Inhibition of a panel of kinases (in vitro HotSpot kinase assay, 33P-ATP, 1 μM ATP), other kinases; settings: BMX wild-type, read-out: BMX-WT IC50
T2 sequence (P51813 1-675): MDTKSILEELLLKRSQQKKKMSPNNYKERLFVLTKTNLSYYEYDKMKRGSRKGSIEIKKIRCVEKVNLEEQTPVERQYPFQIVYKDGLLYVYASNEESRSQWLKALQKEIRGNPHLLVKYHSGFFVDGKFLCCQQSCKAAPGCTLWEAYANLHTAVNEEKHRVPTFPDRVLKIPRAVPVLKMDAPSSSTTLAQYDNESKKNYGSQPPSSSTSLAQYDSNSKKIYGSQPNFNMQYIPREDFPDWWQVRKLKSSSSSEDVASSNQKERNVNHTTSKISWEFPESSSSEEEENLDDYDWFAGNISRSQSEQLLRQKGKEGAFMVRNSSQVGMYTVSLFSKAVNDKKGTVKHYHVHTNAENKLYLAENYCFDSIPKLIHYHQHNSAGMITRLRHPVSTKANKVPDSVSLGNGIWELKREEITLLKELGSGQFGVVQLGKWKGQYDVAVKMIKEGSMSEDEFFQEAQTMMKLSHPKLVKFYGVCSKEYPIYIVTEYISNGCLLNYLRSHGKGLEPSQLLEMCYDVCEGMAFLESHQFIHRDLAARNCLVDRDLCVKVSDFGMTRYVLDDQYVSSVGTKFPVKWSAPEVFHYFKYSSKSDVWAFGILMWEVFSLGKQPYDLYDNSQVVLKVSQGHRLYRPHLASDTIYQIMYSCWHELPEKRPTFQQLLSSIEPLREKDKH
Method in brief: (§1)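 At 1 μM ATP spiked with 33P-ATP, substrate phosphorylation by the purified enzymes gives the extent of inhibition.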

[3] = target: T3, TEC (Homo sapiens, UniProt P42680); test: Inhibition of a panel of kinases (in vitro HotSpot kinase assay, 33P-ATP, 1 μM ATP); settings: for IC50: HotSpot kinase assay, 1 μM ATP; for TEC/Btk: ratio of TEC IC50 to Btk IC50 (selectivity)
T3 sequence (P42680 1-631): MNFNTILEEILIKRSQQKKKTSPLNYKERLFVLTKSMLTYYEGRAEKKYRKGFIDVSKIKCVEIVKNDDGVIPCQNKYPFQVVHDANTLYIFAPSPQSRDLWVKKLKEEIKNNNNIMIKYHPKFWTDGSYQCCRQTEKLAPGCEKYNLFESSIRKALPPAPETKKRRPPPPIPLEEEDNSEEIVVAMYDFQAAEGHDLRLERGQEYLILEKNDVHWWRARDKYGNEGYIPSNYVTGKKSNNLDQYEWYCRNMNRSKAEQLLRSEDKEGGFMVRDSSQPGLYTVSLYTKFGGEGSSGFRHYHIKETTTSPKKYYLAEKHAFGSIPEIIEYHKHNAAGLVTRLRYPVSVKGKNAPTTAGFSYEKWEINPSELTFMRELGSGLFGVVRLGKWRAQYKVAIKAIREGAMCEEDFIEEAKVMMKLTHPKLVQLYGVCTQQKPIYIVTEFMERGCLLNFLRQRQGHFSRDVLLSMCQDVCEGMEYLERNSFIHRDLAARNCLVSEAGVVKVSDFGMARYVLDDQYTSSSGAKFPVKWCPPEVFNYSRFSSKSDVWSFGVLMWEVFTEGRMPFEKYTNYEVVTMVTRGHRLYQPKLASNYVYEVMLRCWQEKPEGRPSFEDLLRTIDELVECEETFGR
Method in brief: as §1

[4] = wild-type Btk, read-out: Btk-WT IC50
[5] = method is one of A, B or C, not stated which, read-out: IC50 values against Btk

T1 sequence (Q06187 whole entry): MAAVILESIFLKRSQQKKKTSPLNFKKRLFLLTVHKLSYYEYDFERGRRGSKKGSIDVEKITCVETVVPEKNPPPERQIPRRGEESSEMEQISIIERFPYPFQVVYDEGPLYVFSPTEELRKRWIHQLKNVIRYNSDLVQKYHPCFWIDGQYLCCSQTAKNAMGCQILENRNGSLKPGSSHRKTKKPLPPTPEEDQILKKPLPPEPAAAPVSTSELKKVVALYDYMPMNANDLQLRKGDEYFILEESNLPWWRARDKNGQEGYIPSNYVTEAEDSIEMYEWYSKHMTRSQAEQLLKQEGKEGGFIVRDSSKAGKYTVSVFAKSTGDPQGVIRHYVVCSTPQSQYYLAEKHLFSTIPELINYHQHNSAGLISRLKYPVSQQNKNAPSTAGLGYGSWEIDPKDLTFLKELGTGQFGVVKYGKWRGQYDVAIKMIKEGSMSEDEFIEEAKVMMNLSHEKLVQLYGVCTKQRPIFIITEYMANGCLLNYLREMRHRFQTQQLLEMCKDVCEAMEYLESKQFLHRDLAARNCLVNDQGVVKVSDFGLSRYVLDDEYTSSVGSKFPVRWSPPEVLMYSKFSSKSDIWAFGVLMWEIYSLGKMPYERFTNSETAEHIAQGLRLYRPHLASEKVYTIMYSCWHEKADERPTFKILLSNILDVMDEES

| IC50 [1, 4] [nM] | IC50 [2] [nM] | IC50 [3] [nM] | TEC/Btk [3] | IC50 [1, 5] [nM] | SMILES |
| --- | --- | --- | --- | --- | --- |
| 0.139 | 44 | 22 |  | < 10 | CC#CC(=O)N1CC[C@@H](Nc2n[nH]c3nccc(-c4ccc(CNC(=O)c5noc(C(C)(C)C)n5)c(F)c4)c23)C1 [Example 24, N-{[4-(3-{[(3R)-1-(but-2-ynoyl)pyrrolidin-3-yl]amino}-1H-pyrazolo[3,4-b]pyridin-4-yl)-2-fluorophenyl]methyl}-5-tert-butyl-1,2,4-oxadiazole-3-carboxamide] |
| 0.481 | 794 | 175 |  | < 10 | CN(C)C/C=C/C(=O)N1CC[C@@H](Nc2n[nH]c3nccc(-c4ccc(CNC(=O)c5noc(C(C)(C)C)n5)c(F)c4)c23)C1 [Example 25, 5-tert-butyl-N-{[4-(3-{[(3R)-1-[(2E)-4-(dimethylamino)but-2-enoyl]pyrrolidin-3-yl]amino}-1H-pyrazolo[3,4-b]pyridin-4-yl)-2-fluorophenyl]methyl}-1,2,4-oxadiazole-3-carboxamide] |
| 0.623 | 310 | 152 | 244 | < 10 | C=CC(=O)N1CC[C@@H](Nc2n[nH]c3nccc(-c4ccc(CN5CCn6c(cc7c6CC(C)(C)C7)C5=O)c(F)c4)c23)C1 [Example 53] |
| 29.2 | > 10000 | > 10000 | >100 |  | C[C@H]1NCCC[C@H]1Nc1n[nH]c2nccc(-c3ccc(CNC(=O)c4noc(C(C)(C)C)n4)c(F)c3)c12 [Example 55] |
| 0.42 | 219 | 403 | 959 | < 10 | C=CC(=O)N1CC[C@@H](Nc2n[nH]c3nccc(-c4ccc(CNC(=O)c5ccn(C(C)(C)C)n5)c(F)c4)c23)C1 [Example 66, 1-tert-butyl-N-{[2-fluoro-4-(3-{[(3R)-1-(prop-2-enoyl)pyrrolidin-3-yl]amino}-1H-pyrazolo[3,4-b]pyridin-4-yl)phenyl]methyl}-1H-pyrazole-3-carboxamide] |
| 0.601 | 541 | 258 | 429 | < 10 | C[C@H]1CC[C@@H](Nc2n[nH]c3nccc(-c4ccc(CNC(=O)c5noc(C(C)(C)C)n5)c(F)c4)c23)CN1C=O [Example 68, 5-tert-butyl-N-{[2-fluoro-4-(3-{[(3R,6S)-1-formyl-6-methylpiperidin-3-yl]amino}-1H-pyrazolo[3,4-b]pyridin-4-yl)phenyl]methyl}-1,2,4-oxadiazole-3-carboxamide] |
| 42.2 | > 10000 | > 10000 | >100 |  | CC(C)(C)c1noc(C(=O)NC2(c3ccc(-c4ccnc5[nH]nc(N[C@@H]6CCNC6)c45)cc3)CC2)n1 [Example 71, 3-tert-butyl-N-{1-[4-(3-{[(3R)-pyrrolidin-3-yl]amino}-1H-pyrazolo[3,4-b]pyridin-4-yl)phenyl]cyclopropyl}-1,2,4-oxadiazole-5-carboxamide] |
| > 10000 | > 10000 | > 10000 | >100 |  | C[C@H](NC(=O)c1noc(C(C)(C)C)n1)c1ccc(-c2ccnc3[nH]nc(N[C@@H]4CCNC4)c23)cc1 [Example 72, 5-tert-butyl-N-[(1S)-1-[4-(3-{[(3R)-pyrrolidin-3-yl]amino}-1H-pyrazolo[3,4-b]pyridin-4-yl)phenyl]ethyl]-1,2,4-oxadiazole-3-carboxamide] |

Further lines, the molecule ahead of its results:

| SMILES | IC50 [1, 4] [nM] | IC50 [2] [nM] | IC50 [3] [nM] | TEC/Btk [3] | IC50 [1, 5] [nM] |
| --- | --- | --- | --- | --- | --- |
| C=CC(=O)N1CC[C@@H](Nc2n[nH]c3nccc(-c4ccc(CNC(=O)c5ccc(OC)cc5)c(F)c4)c23)C1 [Compound 49, (R)—N-(4-(3-((1-acryloylpyrrolidin-3-yl)amino)-1H-pyrazolo[3,4-b]pyridin-4-yl)-2-fluorobenzyl)-4-methoxybenzamide] | 1.78 | 89 | 70 | 39 |  |
| CC(C)(C)c1nc(C(=O)NCc2ccc(-c3ccnc4[nH]nc(N[C@H]5CCNC5)c34)cc2F)no1 [Compound 50, 5-tert-butyl-N-{[2-fluoro-4-(3-{[(3S)-pyrrolidin-3-yl]amino}-1H-pyrazolo[3,4-b]pyridin-4-yl)phenyl]methyl}-1,2,4-oxadiazole-3-carboxamide] | 3.2 | 7440 | 2960 | 925 |  |
| CC(C)(C)c1cccc(C(=O)NCc2ccc(-c3ccnc4[nH]nc(N[C@@H]5CCNC5)c34)cc2F)c1 [Example 62, 3-tert-butyl-N-{[2-fluoro-4-(3-{[(3R)-pyrrolidin-3-yl]amino}-1H-pyrazolo[3,4-b]pyridin-4-yl)phenyl]methyl}benzamide] | 861 | 2140 | 3340 | 4 |  |
| CC(C)(C)c1cc(C(=O)NCc2ccc(-c3ccnc4[nH]nc(N[C@@H]5CCNC5)c34)cc2F)no1 [Example 63, 5-tert-butyl-N-{[2-fluoro-4-(3-{[(3R)-pyrrolidin-3-yl]amino}-1H-pyrazolo[3,4-b]pyridin-4-yl)phenyl]methyl}-1,2-oxazole-3-carboxamide] | 10.2 | > 10000 | 7860 | 771 |  |
| CC(C)(C)n1ccc(C(=O)NCc2ccc(-c3ccnc4[nH]nc(N[C@@H]5CCNC5)c34)cc2F)n1 [Example 64, 1-tert-butyl-N-{[2-fluoro-4-(3-{[(3R)-pyrrolidin-3-yl]amino}-1H-pyrazolo[3,4-b]pyridin-4-yl)phenyl]methyl}-1H-pyrazole-3-carboxamide] | 167 | > 10000 | > 10000 | >100 |  |
| C=CC(=O)N1CC[C@@H](Nc2n[nH]c3nccc(-c4ccc(CNC(=O)c5cc(C(C)(C)C)on5)c(F)c4)c23)C1 [Example 65, 5-tert-butyl-N-{[2-fluoro-4-(3-{[(3R)-1-(prop-2-enoyl)pyrrolidin-3-yl]amino}-1H-pyrazolo [3,4-b]pyridin-4-yl)phenyl]methyl}-1,2-oxazole-3-carboxamide] | 0.0792 | 78 | 42 | 529 | < 10 |
| C[C@H]1CC[C@@H](Nc2n[nH]c3nccc(-c4ccc(CNC(=O)c5noc(C(C)(C)C)n5)c(F)c4)c23)CN1C(=O)N(C)C [Example 67, (2S,5R)-5-{[4-(4-{[(5-tert-butyl-1,2,4-oxadiazol-3-yl)formamido]methyl}-3-fluorophenyl)-1H-pyrazolo[3,4-b]pyridin-3-yl]amino}-N,N,2-trimethylpiperidine-1-carboxamide] | 0.359 | 137 | 121 | 337 | < 10 |
| CC(C)(C)c1nc(C(=O)NCc2ccc(-c3ccnc4[nH]nc(N[C@@H]5CCCNC5)c34)cc2F)no1 [Example 69, 5-tert-butyl-N-{[2-fluoro-4-(3-{[(3R)-piperidin-3-yl]amino}-1H-pyrazolo[3,4-b]pyridin-4-yl)phenyl]methyl}-1,2,4-oxadiazole-3-carboxamide] | 10.4 | 6970 | 4510 | 434 |  |
| CC(C)(C)c1nc(C(=O)NC2(c3ccc(-c4ccnc5[nH]nc(N[C@@H]6CCCNC6)c45)cc3)CC2)no1 [Example 70, 5-tert-butyl-N-{1-[4-(3-{[(3R)-piperidin-3-yl]amino}-1H-pyrazolo[3,4-b]pyridin-4-yl)phenyl]cyclopropyl}-1,2,4-oxaidazole-3-carboxamide] | 180 | > 10000 | > 10000 | >100 |  |
